Data published in patent US20120082684A1, “DIAGNOSIS AND TREATMENT OF CELL PROLIFERATION AND DIFFERENTIATION DISORDERS BASED ON THE FMN2 GENE” (UNIVERSITY COURT OF THE UNIVERSITY OF DUNDEE, priority 2009, published 2012).

Legend:
NARF2 cells [1] = experiment: Rescue of FMN2 depletion by co-transfection of siRNAs, Western blot (FIG. 14); type: cell-based, human; details: co-transfection of both PA28γ siRNA and Skp2 siRNA with FMN2 siRNA, with/without p14ARF induction
Description: (§1) siRNA experiments. siRNA duplex oligo ribonucleotides were synthesised by MWG and transfected using Interferin (Polyplus) as per manufacturers instruction. In brief, cells were plated the day before transfection at the concentration of 2×10^5 cells per well in 6 well plates. The following day, cells were transfected with the final concentration of 5 nM of siRNA oligoribonucleotides in fresh media, final volume of 2.2 ml. Cells were incubated for a further 48 hours prior to harvesting. IPTG was added for 24 hours unless otherwise stated. siRNA sequences are described here (Control: 5′-CAGUCGCGUUUGCGACUGG-3′, FMN2-5′-GUAUACCAGGUCUCCUCAA-3′, PA28γ-5′-GAAUCAAUAUGUCACUCUA-3′, Skp2-5′-ACUCAAGUCCAGCCAUAAG-3′).).
FIG. 14. […] Detection of protein levels for endogenous FMN2, Skp2, PA28G, p21, p14ARF and Actin following transfection of NARF2 cells using either siRNAs for FMN2 (see FIG. 15A for location of siRNA target sequence), PA28γ, Skp2 and control (Control) with/without p14ARF induction (+/blank). An equivalent amount of NARF2 extract was loaded for each lane and the proteins separated by SDS PAGE, electroblotted and probed both with a monoclonal anti-PA28γ and polyclonal anti-FMN2, anti-Skp2, anti-p21, anti-p14ARF and with anti-Actin as a loading control.

NARF2 cells [2] = experiment: siRNA knock-down in NARF2 cells, protein levels by blot (FIG. 10); type: cell-based, human; details: 5 nM siRNA, 48 hours, with or without 24 hours IPTG
Description: FIG. 10. siRNA approach for FMN2. NARF2 cells were treated with Control, DNA-PK, or FMN2 siRNA and harvested 48 hours with or without 24 hours IPTG induction.
siRNA duplex oligonucleotides were synthesised by MWG and transfected using Interferin (Polyplus) as per manufacturers instruction. In brief, cells were plated the day before transfection at the concentration of 2×10^5 cells per well in 6 well plates. The following day, cells were transfected with the final concentration of 5 nM of siRNA oligonucleotides in fresh media, final volume of 2.2 ml. Cells were incubated for additional 48 hours prior to harvesting. IPTG was added for 24 hours unless otherwise stated. siRNA sequences were described here (Control: CAGUCGCGUUUGCGACUGG, FMN2-GUAUACCAGGUCUCCUCAA). MG132 was purchased from Merck Chemicals and used at the final concentration of 50 μM.
To analyse the function of the FMN2 protein in cells, we designed five siRNAs to suppress FMN2 expression. […] (FIG. 10a). […] In contrast, siRNA knock-down of DNA-PK causes a decrease in the levels of both puma and p21 (FIG. 10b).
as §1

5′-GAAUCAAUAUGUCACUCUA-3′ [PA28γ siRNA]
rescue of p21 inactivation following FMN2 depletion (NARF2 cells [1]): partially rescued

5′-GUAUACCAGGUCUCCUCAA-3′ [FMN2 siRNA]
FMN2 expression after siRNA (NARF2 cells [2]): successful in suppressing FMN2 expression
effect on Hdm2 (NARF2 cells [2]): didn't see any effect
effect on p53 (NARF2 cells [2]): didn't see any effect
p21 level (NARF2 cells [2]): severely reduced
puma level (NARF2 cells [2]): does not affect puma levels

5′-ACUCAAGUCCAGCCAUAAG-3′ [Skp2 siRNA]
rescue of p21 inactivation following FMN2 depletion (NARF2 cells [1]): partially rescued
